Experiments:
Format in all cases: in vivo
[1] = system: Abutilon theophrasti (ABUTH); test: Post-emergence herbicidal action, greenhouse pot test; conditions: for pest or weed control at 5 g/ha / pest or weed control at 20 g/ha: Abutilon theophrasti, 504 h; for pest or weed control at 5 g/ha: read-out: Post-emergence effect at 5 g/ha against ABUTH in %; for pest or weed control at 20 g/ha: read-out: Post-emergence effect at 20 g/ha against ABUTH in %
Procedure: (§1) Seeds of monocotyledonous and dicotyledonous weeds and crop plants were placed in sandy loam in plastic or wood-fibre pots, covered with soil and cultivated in a greenhouse under controlled growth conditions. 2 to 3 weeks after sowing, the test plants were treated at the one-leaf stage. The compounds of the invention, formulated in the form of wettable powders (WP) or as emulsion concentrates (EC), were then sprayed onto the green parts of the plants as aqueous suspension or emulsion with addition of 0.5% additive at a water application rate of 600 l/ha (converted). After the test plants had been kept in the greenhouse under optimum growth conditions for about 3 weeks, the activity of the preparations was rated visually in comparison to untreated controls. For example, 100% activity=the plants have died, 0% activity=like control plants.

Viola tricolor (VIOTR) = test: as above; conditions: for pest or weed control at 20 g/ha: Viola tricolor, 504 h, read-out: Post-emergence effect at 20 g/ha against VIOTR in %
Procedure: as §1

[2] = system: Pharbitis purpurea (PHBPU); test: as above; conditions: Ipomoea purpurea, 504 h; for pest or weed control at 5 g/ha: read-out: Post-emergence effect at 5 g/ha against PHBPU in %; for pest or weed control at 20 g/ha: read-out: Post-emergence effect at 20 g/ha against PHBPU in %
Procedure: as §1

[3] = system: Polygonum convolvulus (POLCO); test: as above; conditions: for pest or weed control at 5 g/ha / pest or weed control at 20 g/ha: Fallopia convolvulus, 504 h; for pest or weed control at 5 g/ha: read-out: Post-emergence effect at 5 g/ha against POLCO in %; for pest or weed control at 20 g/ha: read-out: Post-emergence effect at 20 g/ha against POLCO in %
Procedure: as §1

[4] = system: Echinochloa crus-galli (ECHCG); test: as above; conditions: for pest or weed control at 20 g/ha: Echinochloa crus-galli, 504 h, read-out: Post-emergence effect at 20 g/ha against ECHCG in %
Procedure: as §1

[5] = system: Tripleurospermum inodorum (MATIN); test: as above; conditions: Tripleurospermum inodorum, 504 h, 20 g/ha, read-out: Post-emergence effect at 20 g/ha against MATIN in %
Procedure: as §1

[6] = system: Amaranthus retroflexus (AMARE); test: as above; conditions: Amaranthus retroflexus, 504 h; for pest or weed control at 1.25 g/ha: read-out: Post-emergence effect at 1.25 g/ha against AMARE in %; for pest or weed control at 5 g/ha: read-out: Post-emergence effect at 5 g/ha against AMARE in %; for pest or weed control at 20 g/ha: read-out: Post-emergence effect at 20 g/ha against AMARE in %
Procedure: as §1

Veronica persica (VERPE) = test: as above; conditions: for pest or weed control at 5 g/ha / pest or weed control at 20 g/ha: Veronica persica, 504 h; for pest or weed control at 5 g/ha: read-out: Post-emergence effect at 5 g/ha against VERPE in %; for pest or weed control at 20 g/ha: read-out: Post-emergence effect at 20 g/ha against VERPE in %
Procedure: as §1

Lolium rigidum (LOLRI) = test: as above
Procedure: as §1

[7] = system: Digitaria sanguinalis (DIGSA); test: as above
Procedure: as §1

Bassia scoparia (KCHSC) = test: as above
Procedure: as §1

Setaria viridis (SETVI) = test: as above; conditions: for pest or weed control at 5 g/ha / pest or weed control at 20 g/ha: Setaria viridis, 504 h; for pest or weed control at 5 g/ha: read-out: Post-emergence effect at 5 g/ha against SETVI in %; for pest or weed control at 20 g/ha: read-out: Post-emergence effect at 20 g/ha against SETVI in %
Procedure: as §1

[8] = system: Alopecurus myosuroides (ALOMY); test: as above; conditions: for pest or weed control at 20 g/ha: Alopecurus myosuroides, 504 h, read-out: Post-emergence effect at 20 g/ha against ALOMY in %
Procedure: as §1

[9] = system: Triticum aestivum (TRZAS); test: Post-emergence crop plant compatibility, greenhouse pot test; conditions: Triticum aestivum, in vivo
Procedure: as §1
(§2) The observed effects on selected crop plants are reported here in comparison to the untreated controls (values in %).

Zea mays (ZEAMX) = test: as above; conditions: Zea mays, in vivo
Procedure: as §1, §2

SMILES | Post-emergence effect at 1.25 g/ha against ABUTH in % [1] [%] | pest or weed control at 5 g/ha [1] [%] | pest or weed control at 20 g/ha [1] [%] | Post-emergence effect at 1.25 g/ha against VIOTR in % (Viola tricolor (VIOTR)) [%] | Post-emergence effect at 5 g/ha against VIOTR in % (Viola tricolor (VIOTR)) [%] | pest or weed control at 20 g/ha (Viola tricolor (VIOTR)) [%] | pest or weed control at 5 g/ha [2] [%] | pest or weed control at 20 g/ha [2] [%] | Post-emergence effect at 1.25 g/ha against POLCO in % [3] [%] | pest or weed control at 5 g/ha [3] [%] | pest or weed control at 20 g/ha [3] [%] | Post-emergence effect at 5 g/ha against ECHCG in % [4] [%] | pest or weed control at 20 g/ha [4] [%] | pest or weed control at 20 g/ha [5] [%] | pest or weed control at 1.25 g/ha [6] [%] | pest or weed control at 5 g/ha [6] [%] | pest or weed control at 20 g/ha [6] [%] | Post-emergence effect at 1.25 g/ha against VERPE in % (Veronica persica (VERPE)) [%] | pest or weed control at 5 g/ha (Veronica persica (VERPE)) [%] | pest or weed control at 20 g/ha (Veronica persica (VERPE)) [%] | other results
Cn1c(C(F)(F)F)cc(=O)n(-c2cc(Oc3ccccc3OCC(=O)OCC3CCC3)c(Cl)cc2F)c1=O [I.7-10, Cyclobutylmethyl (2-{2-chloro-4-fluoro-5-[3-methyl-2,6-dioxo-4-(trifluoromethyl)-3,6-dihydropyrimidin-1(2H)-yl]phenoxy}phenoxy)acetate] | 100 | 100 | 100 | 100 | 100 | 100 | 100 | 100 | 100 | 100 | 100 | 100 | 100 | 100 | 100 | 100 | 100 | 100 | 100 | 100 | Post-emergence effect at 1.25 g/ha against ECHCG in % ([4]; 1.25 g/ha): 100%; Post-emergence effect at 20 g/ha against LOLRI in % (Lolium rigidum (LOLRI)): 100%; Post-emergence effect at 1.25 g/ha against DIGSA in % [7]: 80%; Post-emergence effect at 5 g/ha against DIGSA in % [7]: 100%; Post-emergence effect at 20 g/ha against DIGSA in % [7]: 100%; Post-emergence effect at 1.25 g/ha against KCHSC in % (Bassia scoparia (KCHSC)): 100%; Post-emergence effect at 5 g/ha against KCHSC in % (Bassia scoparia (KCHSC)): 100%; Post-emergence effect at 20 g/ha against KCHSC in % (Bassia scoparia (KCHSC)): 100%; Post-emergence effect at 1.25 g/ha against SETVI in % (Setaria viridis (SETVI); 1.25 g/ha): 100%; pest or weed control at 5 g/ha (Setaria viridis (SETVI)): 100%; pest or weed control at 20 g/ha (Setaria viridis (SETVI)): 100%; pest or weed control at 20 g/ha [8]: 100%; Post-emergence effect at 1.25 g/ha against TRZAS in % [9]: 20%
Cn1c(C(F)(F)F)cc(=O)n(-c2cc(Oc3ccccc3OCC(=O)OCC3CC34CC4)c(Cl)cc2F)c1=O (stereo not drawn) [I.7-18, Spiro[2.2]pentan-1-ylmethyl (2-{2-chloro-4-fluoro-5-[3-methyl-2,6-dioxo-4-(trifluoromethyl)-3,6-dihydropyrimidin-1(2H)-yl]phenoxy}phenoxy)acetate] | 100 | 100 | 100 | 100 | 100 | 100 | 100 | 100 | 100 | 100 | 100 | 100 | 100 | 100 | 100 | 100 | 100 | 80 | 100 | 100 | Post-emergence effect at 20 g/ha against LOLRI in % (Lolium rigidum (LOLRI)): 100%; Post-emergence effect at 1.25 g/ha against DIGSA in % [7]: 100%; Post-emergence effect at 5 g/ha against DIGSA in % [7]: 100%; Post-emergence effect at 20 g/ha against DIGSA in % [7]: 100%; Post-emergence effect at 1.25 g/ha against KCHSC in % (Bassia scoparia (KCHSC)): 100%; Post-emergence effect at 5 g/ha against KCHSC in % (Bassia scoparia (KCHSC)): 100%; Post-emergence effect at 20 g/ha against KCHSC in % (Bassia scoparia (KCHSC)): 100%; pest or weed control at 5 g/ha (Setaria viridis (SETVI)): 100%; pest or weed control at 20 g/ha (Setaria viridis (SETVI)): 100%; Post-emergence effect at 5 g/ha against ALOMY in % ([8]; 5 g/ha): 80%; pest or weed control at 20 g/ha [8]: 100%; Post-emergence effect at 1.25 g/ha against TRZAS in % [9]: 10%; Post-emergence effect at 1.25 g/ha against ZEAMX in % (Zea mays (ZEAMX)): 20%

From US20260138958A1, “SUBSTITUTED N-PHENYLURACILS AND SALTS THEREOF, AND USE THEREOF AS HERBICIDAL ACTIVE SUBSTANCES” (Bayer Aktiengesellschaft, priority 2022, published 2026)
